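Values below derive from 48-hour exposures of cells grown in 96-well plates, with endpoints linearly interpolated between the two concentrations bracketing the appropriate inhibition level. Definition used: TGI = concentration required for complete inhibition of growth.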 Where only a bound is given, the exact number is not on record here.

Assay in all cases: NCI tumour cell line growth inhibition, 48 h
Assay [1] has as its system HCC-2998 colon.
Assay [2] relates to A498 renal.
Assay [3] concerns M19-MEL melanoma.
The test system of assay [4] is DLD-1 colon.
In assay [5] the test system is DMS 273 small cell lung.
In assay [6] the test system is DMS 114 small cell lung.
In assay [7] the test system is XF 498 CNS.
Assay [8] concerns KM20L2 colon.
Assay [9] relates to SNB-78 CNS.
Assay [10] has as its system LXFL 529 NSCLC.
Assay [11] relates to HOP-18 NSCLC.

With `C=CC(C)(C)C(=C)C(=O)N(C)c1ccccc1I`, the TGI in assay [1] and in assay [2] was above 100 µM each time.
For `COC(=O)C12OC(C)(C(CC(=O)OC(C)(C)C)C1=O)C1C(=O)N(c3ccccc3)C(=O)C12` (stereo unspecified), the TGI in [1] and in [2] was above 100 µM each time.
In the case of `Cc1nc(-n2[nH]c(C)c(CCO)c2=O)[nH]c(=O)c1CCO`, the TGI in [1] and in [2] was above 100 µM in each case.
As for `Nc1ccc(C(=O)NN2C(=O)C(Cl)C2c2cc(Br)ccc2O)cc1` (stereo unspecified), the TGI in assay [3], in assay [4], in [5], in assay [6], in [1] and in [7] was above 100 µM in each case. Further, the TGI in assay [8], in [9], in assay [10] and in assay [2] was above 100 µM in each case.
In assay [1], `COc1cc(C[C@H]2C(=O)OC[C@@H]2Cc2ccc(OC)c(OC)c2)cc(OC)c1` yielded a TGI above 100 µM.
For `O=c1c2c(c1=O)C1(SCCCS1)c1cc(Cl)ccc1O2`, the TGI in assay [1] and in assay [2] was above 100 µM each time.
On to `COc1ccc(N=Nc2ccc3oc(=O)c(C(=O)Nc4ccccc4)cc3c2)cc1`, for which the TGI in assay [1] and in [2] was above 10 µM throughout.
Take `CCOC(=O)c1cc(C2CCN(CC(C)CC)C2=S)c(-c2cc(C)no2)[nH]1` (stereo unspecified): the TGI in assay [1] and in [2] was above 100 µM in each case.
For the compound `C/C(=N\Nc1ccccc1Br)c1cccc(/C(C)=N/Nc2ccccc2Br)n1`, the TGI in [1] and in assay [2] was above 100 µM in each case.
In the case of `CCN(CC)c1ccc(C2SCC(=O)N2c2ccc(NC(=O)c3ccc(N4C(=O)CSC4c4ccc(N(CC)CC)cc4)cc3)cc2)cc1` (stereo unspecified), the TGI in [1] was above 100 µM.
In assay [2], `O=C1NC(=S)NC(=O)C1C(c1ccc([N+](=O)[O-])cc1)C1C(=O)NC(=S)NC1=O` yielded a TGI above 100 µM.
For `CC1=C(O)C(=O)C[C@]2(C)[C@H]3CC=C4[C@@H]5CC(C)(C)CC[C@@H]5C(=O)[C@H](O)[C@@]4(C)[C@]3(C)CC[C@@H]12`, the TGI in assay [1] and in [2] was above 50 µM in each case.
Turning to `CC1(C)C2CCC(N)(C2)C1N` (stereo unspecified), the TGI in assay [1] and in [2] was above 100 µM in each case.
For `COc1ccc(C(=O)c2sc(Nc3ccccc3)nc2N)cc1`, the TGI in assay [1] and in [2] was above 100 µM each time.
Take `Cc1cnc(/N=c2\sc(C)cn2-c2ncc(C)s2)s1`: the TGI in assay [1] was above 100 µM.
On to `COc1ccc(-c2cc(-c3ccc(Nc4ccnc5cc(Cl)ccc45)cc3)nc(N)c2C#N)cc1`, for which the TGI in assay [1] and in assay [2] was above 100 µM throughout.
For the compound `O=C1C=CC(=O)c2c(NCC3CC3)ccc(NCC3CC3)c21`, the TGI in assay [1] and in assay [2] was above 100 µM each time.
Turning to `COc1cc2c(cc1OC)CC(=O)c1cc(OC)c(OC)cc1/C=C\2`, in assay [2], the TGI was above 12.5 µM.
Regarding `O=C(Cn1cc(F)c(=O)[nH]c1=O)C12CC3CC(CC(C3)C1)C2`, the TGI in [1] and in assay [2] was above 100 µM throughout.
`CCN(CCCN(CC)C(=O)Nc1ccccc1)C(=O)Nc1ccccc1` had a TGI in assay [1] above 100 µM.
Consider `CCOC(=O)NC(C(=O)OCC)C(F)(F)F` (stereo unspecified), for which the TGI in [1] is above 100 µM.
Turning to `O=C(O)CCC(NC(=O)c1ccc(Nc2cnc3ccc(C(F)(F)F)cc3n2)cc1)C(=O)O` (stereo unspecified), the TGI in assay [1] and in assay [2] was above 100 µM in each case.
`N#CCC(=O)c1cc(OCc2cc(OCc3ccc(Br)cc3)cc(OCc3ccc(Br)cc3)c2)cc(OCc2cc(OCc3ccc(Br)cc3)cc(OCc3ccc(Br)cc3)c2)c1`: the TGI in assay [1] and in [2] was above 100 µM throughout.
Take `O=c1[nH]/c(=C/c2ccc(OCc3ccccc3)cn2)c(=O)[nH]/c1=C/c1ccc(Cl)cc1`: the TGI was above 100 µM in assay [1] and 7.53 µM in assay [2].
As for `O=c1[nH]c(=O)n(COCCO)c2ccc(Br)cc12`, the TGI in [2] was above 100 µM.
Regarding `COc1ccc(N(C)Sc2ccccc2)cc1`, the TGI in [3], in assay [4], in [11], in assay [5], in [6] and in [1] was above 100 µM throughout. The TGI in [7] is 96.6 µM; in assay [8], above 100 µM; in [9], above 100 µM; in [10] it was above 100 µM.
For `CCCc1c(O)c(=O)c2c(OC)cc(OC)c3c4c(OC)cc(OC)c5c(=O)c(O)c(CCC)c(c1c23)c54`, the TGI was 17.1 µM in assay [1] and 11.9 µM in assay [2].
For `c1ccc(-c2ccc(-c3cc4ccccc4[nH]3)cc2)cc1`, in assay [1], the TGI was above 100 µM.
As for `CCCCCCCCCCCCCCCCCCNc1ccn(C2OC(CO)C(O)C2O)c(=O)n1` (stereo unspecified), the TGI in assay [1] and in assay [2] was above 100 µM each time.
For the compound `Cc1cc(OCc2nn(CN3CCN(C)CC3)c(=S)n2/N=C/c2ccc(-c3ccc(Cl)cc3Cl)o2)ccc1Cl`, the values for the TGI in [1] and in [2] were 31.4 µM and above 100 µM, respectively.
As to `NC1CC(N)c2c(Br)sc(Br)c21` (stereo unspecified), the TGI in [1] and in assay [2] was above 100 µM in each case.
As to `NC1=NNC2(C(=O)N1)c1ccccc1-c1ccccc12`, the TGI in assay [1] and in assay [2] was above 10 µM each time.
With `C=C(C(=O)O)C1CCC(CC/C=C(\C)CC/C=C(\C)CCC=C(C)C)CO1` (stereo unspecified), the TGI in assay [2] was found to be 54.4 µM.
Take `N#CCCSC1SC(=C2SC3=C(SCCS3)S2)SC1SCCC#N` (stereo unspecified): the TGI in assay [1] and in assay [2] was above 100 µM each time.
Take `COc1ccc(Cc2c(N)[nH]c(=O)n(C)c2=O)cc1`: the TGI in [1] and in assay [2] was above 100 µM each time.

(Values after PubChem BioAssay (NCI).)
